Measurements: patent US7622289B2, “Ornithine aminotransferase (OAT): a target for anticancer drugs” (Board of Regents, The University of Texas System, priority 2006, dated 2009)
Residues, ends and D or L forms follow the SMILES beside them. *: point of attachment. Cbz = O=C(OCc1ccccc1)*; CH2F = FC*

Key:
OAT enzymatic activity = biological target: T1, OAT enzymatic activity (Mus musculus, UniProt P29758); assay: Ornithine aminotransferase activity in crude mitochondrial extracts from mouse liver; format: biochemical; details: increasing concentrations
T1 construct: Crude mitochondrial extracts from mouse liver were assayed for ornithine aminotransferase activity; from tissue; host or cells: mouse liver, crude mitochondrial extract
T1 sequence (P29758 26-439): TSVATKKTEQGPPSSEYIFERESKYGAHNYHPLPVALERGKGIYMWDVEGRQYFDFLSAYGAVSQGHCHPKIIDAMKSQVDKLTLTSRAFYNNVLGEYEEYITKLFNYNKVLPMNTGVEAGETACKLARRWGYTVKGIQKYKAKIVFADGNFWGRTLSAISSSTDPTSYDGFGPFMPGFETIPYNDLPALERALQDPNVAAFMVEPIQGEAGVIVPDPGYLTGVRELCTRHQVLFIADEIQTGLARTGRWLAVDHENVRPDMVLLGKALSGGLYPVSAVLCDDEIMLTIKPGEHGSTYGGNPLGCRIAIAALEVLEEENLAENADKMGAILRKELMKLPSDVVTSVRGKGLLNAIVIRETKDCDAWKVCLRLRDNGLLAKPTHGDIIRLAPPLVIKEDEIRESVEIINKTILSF
Method: To determine if diazonamide binds to OAT directly, recombinant His-tagged hOAT was produced in bacteria, purified, and incubated with compound 3-coated avidin agarose. […] We next examined the impact of diazonamide binding on OAT enzymatic activity. Crude mitochondrial extracts from mouse liver were assayed for ornithine aminotransferase activity in the presence of increasing concentrations of compounds 2 or 3.

[1] = tested on: wild-type human fibroblasts; assay: Mitotic arrest (cell rounding) in wild-type human fibroblasts; format: cell-based; details: 10 nM for 30 hrs
Method: (§1) The OAT locus has been examined in fibroblasts derived from GA patients wherein various point and nonsense mutations have been characterized (20). Such cell lines offered another means to solidify the connection between OAT, diazonamide, and its anti-mitotic properties. When wild-type human fibroblasts were exposed to 10 nM diazonamide A for 30 hrs, >60% of cells rounded up—indicative in this case of mitotic arrest. […] Among the mutant cell lines examined only R154L and R180T variants express OAT protein.

HeLa cells = assay: Mitotic arrest and spindle phenotype in HeLa cells; format: cell-based, human; details: 30 nM, eighteen hours following dosage
Source text: Suitable spindle assembly systems include Xenopus egg extracts, Hela cells, COS-7 cells, CHO cells, U20S cells, etc. An agent-biased spindle assembly is a spindle-assembly that has a phenotype that differs from that of the first spindle assembly (i.e. the normal control). […] The spindle phenotypes are typically visualized by fixing the cells or cell extracts and differentially staining the α-tubulin and DNA [5]. Spindle assembly can also be visualized by live cell imaging.
Biotin conjugate 3 (Table 1) was prepared to facilitate isolation of diazonamide binding proteins using avidin-based affinity chromatography. […] As a negative control, seco analog 5 was synthesized: […]

[2] = tested on: fibroblast lines derived from gyrate atrophy patients harboring OAT mutations; assay: Mitotic arrest (cell rounding) in gyrate atrophy patient fibroblasts; format: cell-based, human; details: OAT mutations: initiator methionine, R154L, R180T, W391 nonsense
Method: as §1

HeLa cell = HeLa cell growth inhibition; format: cell-based, human
Method: Biotin conjugate 3 (Table 1) was prepared to facilitate isolation of diazonamide binding proteins using avidin-based affinity chromatography. […] As a negative control, seco analog 5 was synthesized:
This molecule is identical to 3 except it lacks the biaryl linkage connecting carbons 16 and 18 (Table 1).

[3] = tested on: cultured human cancer cell; details: cited from earlier work
BS-C-1 and PTK2 culture = assay: Interphase microtubules in BS-C-1 and PTK2 culture; format: cell-based; details: at GI50 concentrations
Method: COMPARE pattern analysis of observed cytotoxic/cytostatic activities implied a mechanistic correlation between diazonamide and microtubule de-polymerizing agents such as maytansine and vinblastine. […] To test this possibility, a synthetic variant of diazonamide A (2, Table 1) was prepared.

tubulin = details: cited from earlier work
[4] = tested on: endogenous OAT in HeLa cells; assay: OAT siRNA knock-down in HeLa cells; format: cell-based, human; details: added to OAT siRNA-treated HeLa cells
Source text: OAT is well characterized as a mitochondrial matrix enzyme. In this context it regulates flux through the urea cycle and couples, indirectly, proline biosynthesis to the availability of fumarate for consumption in the TCA cycle (19). For reasons not completely understood, mutations in the human enzyme are associated with a progressive degeneration of the retina and choroid termed gyrate atrophy (20).

SMILES: C#CC(N)CCC(=O)O (centres unmarked) [4-aminohex-5-ynoic acid]
- inhibition of conversion of L-ornithine to L-Δ1-pyrroline-5-carboxylic acid (OAT enzymatic activity): suppressed the activity in a dose dependent manner

SMILES: CC(C)[C@H](O)C(=O)N[C@H]1Cc2ccc3c(c2)[C@]24C5=C(N=C(O5)[C@H](C(C)C)NC1=O)c1nc(Cl)c(o1)-c1c(Cl)[nH]c5cccc(c15)-c1cccc2c1N[C@@H]4O3 [Compound 1, (-)-diazonamide A]
- cells rounded up (mitotic arrest) [1]: > 60%
- spindle phenotype (HeLa cells): multi-pole spindle phenotype with misaligned chromosomes
- response of gyrate atrophy fibroblast lines [2]: resistant to the compound
- GI50 (HeLa cell): 5 nM
- concentration inhibiting cultured human cancer cell growth [3]: low nanomolar concentrations
- impact on interphase microtubules (BS-C-1 and PTK2 culture): little impact on interphase microtubules
- competition with vinca alkaloids or nocadazole for tubulin binding (tubulin): did not compete
- purified tubulin polymerization in vitro (tubulin): inhibit purified tubulin polymerization in vitro

SMILES: N=C(N)NCCC[C@H](N)C(=O)O [L-arginine]
- blocking of cell death in OAT siRNA-treated cells [4]: failed to attenuate the rate of death or restore normal spindle assembly

SMILES: CC(NC(=O)C(NC(=O)OCc1ccccc1)C(C)C)C(=O)NC(CC(=O)O)C(=O)CF (stereo not drawn) [Z-VAD] (Cbz-Val-Ala-Asp-CH2F; configuration not given here)
- blocking of cell death in OAT siRNA-treated cells [4]: not blocked
